Test results reported in ChEMBL document CHEMBL1201862, “PubChem BioAssay data set” (2004).
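Briefly, cells in 96-well plates were exposed to five compound concentrations for 48 h, and endpoints were estimated by linear interpolation. The concentration for 50% growth inhibition is given as GI50.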 Activity calls are given as the source filed them. No stated cut-off is given here; in the data, active = GI50 up to about 1.1 µM and inactive = higher.

Assays:
Assay in all cases: NCI-60 cell line screen, 48 h
786-0 = system: 786-0
A498 = system: A498
A549 = system: A549
ACHN = system: ACHN
BT-549 = system: BT-549
CAKI-1 = system: CAKI-1
CCRF-CEM = system: CCRF-CEM
COLO 205 = system: COLO 205
DU-145 = system: DU-145
EKVX = system: EKVX
HCC 2998 = system: HCC 2998
HCT-116 = system: HCT-116
HCT-15 = system: HCT-15
HL-60 = system: HL-60
HOP-62 = system: HOP-62
HOP-92 = system: HOP-92
HT-29 = system: HT-29
Hs-578T = system: Hs-578T
K562 = system: K562
KM12 = system: KM12
LOX IMVI = system: LOX IMVI
M14 = system: M14
MCF7 = system: MCF7
MDA-MB-231 = system: MDA-MB-231
MDA-MB-435 = system: MDA-MB-435
MDA-N = system: MDA-N
MOLT-4 = system: MOLT-4
Malme-3M = system: Malme-3M
NCI-H226 = system: NCI-H226
NCI-H23 = system: NCI-H23
NCI-H460 = system: NCI-H460
NCI-H522 = system: NCI-H522
NCI/ADR-RES = system: NCI/ADR-RES
OVCAR-3 = system: OVCAR-3
OVCAR-4 = system: OVCAR-4
OVCAR-5 = system: OVCAR-5
OVCAR-8 = system: OVCAR-8
PC-3 = system: PC-3
RPMI-8226 = system: RPMI-8226
SF-268 = system: SF-268
SF-295 = system: SF-295
SF-539 = system: SF-539
SK-MEL-28 = system: SK-MEL-28
SK-MEL-2 = system: SK-MEL-2
SK-MEL-5 = system: SK-MEL-5
SK-OV-3 = system: SK-OV-3
SN12C = system: SN12C
SNB-19 = system: SNB-19
SNB-75 = system: SNB-75
SR = system: SR
SW-620 = system: SW-620
TK-10 = system: TK-10
U-251 = system: U-251
UACC-257 = system: UACC-257
UACC-62 = system: UACC-62
UO-31 = system: UO-31
IGROV-1 = system: IGROV-1
RXF 393 = system: RXF 393
T47D = system: T47D

CC1(F)C=CC(=O)C=C1
GI50 (786-0): 17 µM (inactive) | GI50 (A498): > 100 µM (inactive) | GI50 (A549): > 100 µM (inactive) | GI50 (ACHN): 59.6 µM (inactive) | GI50 (BT-549): > 100 µM (inactive) | GI50 (CAKI-1): 55.7 µM (inactive) | GI50 (CCRF-CEM): 47.5 µM (inactive) | GI50 (COLO 205): > 100 µM (inactive) | GI50 (DU-145): > 100 µM (inactive) | GI50 (EKVX): > 100 µM (inactive) | GI50 (HCC 2998): > 100 µM (inactive) | GI50 (HCT-116): 38.4 µM (inactive) | GI50 (HCT-15): 20 µM | GI50 (HL-60): 27.6 µM (inactive) | GI50 (HOP-62): > 100 µM (inactive) | GI50 (HOP-92): 30.5 µM (inactive) | GI50 (HT-29): 46.5 µM (inactive) | GI50 (Hs-578T): > 100 µM (inactive) | GI50 (K562): 44 µM (inactive) | GI50 (KM12): > 100 µM (inactive) | GI50 (LOX IMVI): 16.3 µM (inactive) | GI50 (M14): > 100 µM (inactive) | GI50 (MCF7): 31.8 µM (inactive) | GI50 (MDA-MB-231): 40.1 µM (inactive) | GI50 (MDA-MB-435): 35.7 µM (inactive) | GI50 (MDA-N): 33.2 µM (inactive) | GI50 (MOLT-4): 26.4 µM (inactive) | GI50 (Malme-3M): 18.4 µM (inactive) | GI50 (NCI-H226): 86.9 µM (inactive) | GI50 (NCI-H23): > 100 µM (inactive) | GI50 (NCI-H460): > 100 µM (inactive) | GI50 (NCI-H522): 37.4 µM (inactive) | GI50 (NCI/ADR-RES): 17.6 µM (inactive) | GI50 (OVCAR-3): > 100 µM (inactive) | GI50 (OVCAR-4): 79.3 µM (inactive) | GI50 (OVCAR-5): 58.7 µM (inactive) | GI50 (OVCAR-8): 19.6 µM (inactive) | GI50 (PC-3): 69.7 µM (inactive) | GI50 (RPMI-8226): 29.4 µM (inactive) | GI50 (SF-268): > 100 µM (inactive) | GI50 (SF-295): > 100 µM (inactive) | GI50 (SF-539): 37.9 µM (inactive) | GI50 (SK-MEL-28): > 100 µM (inactive) | GI50 (SK-MEL-2): > 100 µM (inactive) | GI50 (SK-MEL-5): > 100 µM (inactive) | GI50 (SK-OV-3): > 100 µM (inactive) | GI50 (SN12C): > 100 µM (inactive) | GI50 (SNB-19): > 100 µM (inactive) | GI50 (SNB-75): > 100 µM (inactive) | GI50 (SR): 32.6 µM (inactive) | GI50 (SW-620): 22.2 µM (inactive) | GI50 (TK-10): 38.9 µM (inactive) | GI50 (U-251): 24.7 µM (inactive) | GI50 (UACC-257): 71.8 µM (inactive) | GI50 (UACC-62): 44.9 µM (inactive) | GI50 (UO-31): 23.6 µM (inactive)

CC(/C=N/N=C1NCCCCN1)=N\N=C1NCCCCN1
GI50 (786-0): > 100 µM (inactive) | GI50 (A549): > 100 µM (inactive) | GI50 (ACHN): > 100 µM (inactive) | GI50 (BT-549): > 100 µM (inactive) | GI50 (CAKI-1): > 100 µM (inactive) | GI50 (CCRF-CEM): > 100 µM (inactive) | GI50 (COLO 205): 22.3 µM (inactive) | GI50 (EKVX): > 100 µM (inactive) | GI50 (HCC 2998): > 100 µM (inactive) | GI50 (HCT-116): 86.3 µM (inactive) | GI50 (HCT-15): > 100 µM | GI50 (HOP-62): > 100 µM (inactive) | GI50 (HOP-92): 37.9 µM (inactive) | GI50 (HT-29): 84.1 µM (inactive) | GI50 (Hs-578T): > 100 µM (inactive) | GI50 (IGROV-1): > 100 µM (inactive) | GI50 (K562): 37.1 µM (inactive) | GI50 (KM12): > 100 µM (inactive) | GI50 (LOX IMVI): 16.7 µM (inactive) | GI50 (M14): 18.2 µM (inactive) | GI50 (MCF7): 64.9 µM (inactive) | GI50 (MDA-MB-231): > 100 µM (inactive) | GI50 (MDA-MB-435): 47.9 µM (inactive) | GI50 (MDA-N): 52.2 µM (inactive) | GI50 (MOLT-4): 87.3 µM (inactive) | GI50 (Malme-3M): 35.8 µM (inactive) | GI50 (NCI-H226): > 100 µM (inactive) | GI50 (NCI-H23): > 100 µM (inactive) | GI50 (NCI-H460): > 100 µM (inactive) | GI50 (NCI-H522): > 100 µM (inactive) | GI50 (NCI/ADR-RES): > 100 µM (inactive) | GI50 (OVCAR-3): > 100 µM (inactive) | GI50 (OVCAR-4): > 100 µM (inactive) | GI50 (OVCAR-5): > 100 µM (inactive) | GI50 (OVCAR-8): > 100 µM (inactive) | GI50 (PC-3): 87.7 µM (inactive) | GI50 (RPMI-8226): > 100 µM (inactive) | GI50 (RXF 393): > 100 µM (inactive) | GI50 (SF-268): > 100 µM (inactive) | GI50 (SF-295): 47.2 µM (inactive) | GI50 (SF-539): > 100 µM (inactive) | GI50 (SK-MEL-28): > 100 µM (inactive) | GI50 (SK-MEL-5): 49.2 µM (inactive) | GI50 (SK-OV-3): > 100 µM (inactive) | GI50 (SN12C): > 100 µM (inactive) | GI50 (SNB-19): > 100 µM (inactive) | GI50 (SNB-75): > 100 µM (inactive) | GI50 (SR): 73.3 µM (inactive) | GI50 (SW-620): > 100 µM (inactive) | GI50 (T47D): > 100 µM (inactive) | GI50 (TK-10): > 100 µM (inactive) | GI50 (U-251): > 100 µM (inactive) | GI50 (UACC-257): 47.6 µM (inactive) | GI50 (UACC-62): > 100 µM (inactive) | GI50 (UO-31): > 100 µM (inactive)

NC(N)=NC(P(=O)(O)O)P(=O)(O)O
GI50 (786-0): > 100 µM (inactive) | GI50 (A549): > 100 µM (inactive) | GI50 (ACHN): > 100 µM (inactive) | GI50 (BT-549): > 100 µM (inactive) | GI50 (CAKI-1): > 100 µM (inactive) | GI50 (COLO 205): > 100 µM (inactive) | GI50 (DU-145): > 100 µM (inactive) | GI50 (EKVX): > 100 µM (inactive) | GI50 (HCC 2998): > 100 µM (inactive) | GI50 (HCT-116): > 100 µM (inactive) | GI50 (HCT-15): > 100 µM | GI50 (HOP-62): > 100 µM (inactive) | GI50 (Hs-578T): 0.254 µM (active) | GI50 (IGROV-1): > 100 µM (inactive) | GI50 (KM12): > 100 µM (inactive) | GI50 (LOX IMVI): > 100 µM (inactive) | GI50 (M14): > 100 µM (inactive) | GI50 (MCF7): > 100 µM (inactive) | GI50 (MDA-MB-231): > 100 µM (inactive) | GI50 (MDA-N): > 100 µM (inactive) | GI50 (Malme-3M): > 100 µM (inactive) | GI50 (NCI-H226): > 100 µM (inactive) | GI50 (NCI-H23): > 100 µM (inactive) | GI50 (NCI-H460): > 100 µM (inactive) | GI50 (NCI-H522): > 100 µM (inactive) | GI50 (NCI/ADR-RES): > 100 µM (inactive) | GI50 (OVCAR-3): > 100 µM (inactive) | GI50 (OVCAR-5): > 100 µM (inactive) | GI50 (PC-3): > 100 µM (inactive) | GI50 (RXF 393): > 100 µM (inactive) | GI50 (SF-268): > 100 µM (inactive) | GI50 (SF-295): > 100 µM (inactive) | GI50 (SF-539): > 100 µM (inactive) | GI50 (SK-MEL-5): > 100 µM (inactive) | GI50 (SK-OV-3): > 100 µM (inactive) | GI50 (SNB-19): > 100 µM (inactive) | GI50 (TK-10): > 100 µM (inactive) | GI50 (UACC-257): > 100 µM (inactive) | GI50 (UACC-62): > 100 µM (inactive) | GI50 (UO-31): > 100 µM (inactive)
